Measured values published in paper PMC13489962, “Small-molecule modulation of β-arrestins” (Nature, 2026).

Target: T1, βARR1 E134A (Rattus norvegicus, UniProt P29066, E134A)
T1 construct: βARR1 or βARR2 construct, with their C terminus truncated (at amino acid 393 or 394, respectively); GST (pGEX4T1) (N, cleaved yes); made in house; host or cells: E. coli BL21 (DE3) pLysS
Test: ITC binding to βARR1 mutant E134A
Conditions: 25 °C
Description: The expression and purification of β-arrestins have been described previously[44],[62]–[64]. In brief, E. coli BL21 (DE3) pLysS cells (New England Biolabs: C2527I) carrying pGEX4T1-Rattus norvegicus βARR1 or βARR2 construct, with their C terminus truncated (at amino acid 393 or 394, respectively), were cultured in Terrific Broth (Teknova) medium at 37 °C. After OD600 reached 0.6–0.8, the cells were induced with 0.1 mM isopropyl-β-D-thiogalactopyranoside (IPTG) at 18 °C overnight. Bacteria were collected by centrifugation (4,000 rpm), and cell pellets were resuspended in lysis buffer (20 mM HEPES, pH 8, 150 mM NaCl, 10% glycerol, 1 mM EDTA, 0.2 mM dithiothreitol (DTT), 1 mM phenylmethylsulfonyl fluoride, and 1 mM benzamidine) at 4 °C for 1 h. […] Eluted fractions were analysed by SDS–PAGE, pooled, concentrated using 30 kDa MWCO Amicon Ultra-15 Centrifugal Filter devices, flash-frozen in liquid nitrogen, and stored in aliquots at −80 °C. […] Protein concentrations for each protein were determined by ultraviolet absorption at 280 nm and extinction coefficients estimated using the ExPASy ProtParam tool[67].
ITC measurements were performed on a MicroCal iTC200 system at 25 °C. […] Protein concentrations were determined by spectrophotometry at 280 nm, using extinction coefficients calculated from each protein sequence via the ProtParam program. […]

T1 sequence (P29066 1-393 E134A): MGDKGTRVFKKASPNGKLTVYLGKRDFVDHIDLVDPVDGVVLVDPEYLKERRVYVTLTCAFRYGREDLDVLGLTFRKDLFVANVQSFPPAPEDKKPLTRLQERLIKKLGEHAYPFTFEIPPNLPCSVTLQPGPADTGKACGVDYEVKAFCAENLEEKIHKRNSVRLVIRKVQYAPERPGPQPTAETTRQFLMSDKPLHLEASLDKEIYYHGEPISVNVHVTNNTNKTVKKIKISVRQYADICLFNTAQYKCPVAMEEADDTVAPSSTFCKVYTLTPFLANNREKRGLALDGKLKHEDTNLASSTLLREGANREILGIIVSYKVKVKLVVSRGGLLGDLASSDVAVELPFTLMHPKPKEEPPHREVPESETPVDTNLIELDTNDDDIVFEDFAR

With `C=C1C(=O)[C@]23[C@H](O)[C@H]1CC[C@H]2[C@@]12CO[C@]3(O)[C@@H](O)[C@@H]1C(C)(C)CC[C@@H]2O` [Cmpd-5, (1S,4aR,5S,6S,6aR,9S,11aS,11bS,14R)-1,5,6,14-tetrahydroxy−4,4-dimethyl-8-methylenedecahydro-1H-6,11b-(epoxymethano)-6a,9-methanocyclohepta[a]naphthalen-7(8H)-one] as the compound, how does the Kd read?
Its Kd is 2200 ± 500 nM.

What about the “ΔH, βARR1 E134A” value of the same compound?
The value was -1.2 kcal/mol.
